Measured values reported in patent EP4722201A1, “3-PHENYLISOXAZOLINE-5-CARBOXAMIDE COMPOUND, AND PREPARATION METHOD THEREFOR, HERBICIDAL COMPOSITION THEREOF AND USE THEREOF” (Jiangsu Flag Chemical Industry Co., Ltd, priority 2023, dated 2024).

Legend:
Experiment in all cases: Indoor herbicide activity determination, Seed Treatment; pre-emergence (soil spray)
Type in all cases: in vivo
Aegilops tauschii = details: 120 g a.i./ha, read-out: Herbicidal activities (inhibition rate) Aegilops tauschii
Procedure, shortened: (§1)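 Readout is percent inhibition of fresh weight relative to control plants, determined 21 days after treatment. Soil was sprayed one day after sowing, in a spray tower at 300 mm height and 390 mL/min nozzle flow, onto sandy soil of pH 6.1 with 1% organic matter.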

Alopecurus japonicus = details: Dosage 240 g a.i./ha
Procedure, shortened: as §1

Alopecurus myosuroides = details: Dosage 240 g a.i./ha
Procedure, shortened: as §1

Cyperus iria = details: 120 g a.i./ha, read-out: Herbicidal activities (inhibition rate) Cyperus iria
Procedure, shortened: as §1

Digitaria sanguinalis = details: 120 g a.i./ha, read-out: Herbicidal activities (inhibition rate) Digitaria sanguinalis
Procedure, shortened: as §1

Eclipta prostrata = details: 120 g a.i./ha, read-out: Herbicidal activities (inhibition rate) Eclipta prostrata
Procedure, shortened: as §1

Eleusine indica = details: Dosage 240 g a.i./ha
Procedure, shortened: as §1

Leptochloa chinensis = details: Dosage 240 g a.i./ha
Procedure, shortened: as §1

Lolium multiflorum = details: Dosage 240 g a.i./ha
Procedure, shortened: as §1

| SMILES | inhibition at 120 g/ha (Aegilops tauschii) [%] | Herbicidal activity (inhibition rate class), Alopecurus japonicus (Alopecurus japonicus) | Herbicidal activity (inhibition rate class), Alopecurus myosuroides (Alopecurus myosuroides) | inhibition at 120 g/ha (Cyperus iria) [%] | inhibition at 120 g/ha (Digitaria sanguinalis) [%] | inhibition at 120 g/ha (Eclipta prostrata) [%] | Herbicidal activity (inhibition rate class), Eleusine indica (Eleusine indica) | Herbicidal activity (inhibition rate class), Leptochloa chinensis (Leptochloa chinensis) | Herbicidal activity (inhibition rate class), Lolium multiflorum (Lolium multiflorum) |
| --- | --- | --- | --- | --- | --- | --- | --- | --- | --- |
| CC1(C(=O)N[C@H]2C=C[C@@H](C(=O)O)C2)CC(c2cc(Cl)cc(OC(F)(F)F)c2)=NO1 (stereo partly drawn) [I-485] | 80 to 100 | A (A indicates that the inhibition rate was greater than or equal to 80% to 100%) | A (A indicates that the inhibition rate was greater than or equal to 80% to 100%) | 80 to 100 | 60 to 80 | 80 to 100 | A (A indicates that the inhibition rate was greater than or equal to 80% to 100%) | A (A indicates that the inhibition rate was greater than or equal to 80% to 100%) | A (A indicates that the inhibition rate was greater than or equal to 80% to 100%) |
| COC(=O)[C@@H]1C=C[C@H](NC(=O)C2(C)CC(c3cc(Cl)cc(OC(F)(F)F)c3)=NO2)C1 (stereo partly drawn) [I-486] | 80 to 100 | A (A indicates that the inhibition rate was greater than or equal to 80% to 100%) | A (A indicates that the inhibition rate was greater than or equal to 80% to 100%) | 80 to 100 | 60 to 80 | 80 to 100 | A (A indicates that the inhibition rate was greater than or equal to 80% to 100%) | A (A indicates that the inhibition rate was greater than or equal to 80% to 100%) | A (A indicates that the inhibition rate was greater than or equal to 80% to 100%) |
| CSCCOC(=O)[C@@H]1C=C[C@H](NC(=O)C2(C)CC(c3cc(Cl)cc(OC(F)(F)F)c3)=NO2)C1 (stereo partly drawn) [I-487] | 80 to 100 | A (A indicates that the inhibition rate was greater than or equal to 80% to 100%) | A (A indicates that the inhibition rate was greater than or equal to 80% to 100%) | 80 to 100 | 60 to 80 | 80 to 100 | A (A indicates that the inhibition rate was greater than or equal to 80% to 100%) | A (A indicates that the inhibition rate was greater than or equal to 80% to 100%) | A (A indicates that the inhibition rate was greater than or equal to 80% to 100%) |
| CC1(C(=O)N[C@H]2C=C[C@@H](C(=O)O)C2)CC(c2cc(F)cc(OC(F)(F)F)c2)=NO1 (stereo partly drawn) [I-488] | 80 to 100 | A (A indicates that the inhibition rate was greater than or equal to 80% to 100%) | A (A indicates that the inhibition rate was greater than or equal to 80% to 100%) | 80 to 100 | 60 to 80 | 80 to 100 | A (A indicates that the inhibition rate was greater than or equal to 80% to 100%) | A (A indicates that the inhibition rate was greater than or equal to 80% to 100%) | A (A indicates that the inhibition rate was greater than or equal to 80% to 100%) |
| CSCCOC(=O)[C@@H]1C=C[C@H](NC(=O)C2(C)CC(c3cc(F)cc(OC(F)(F)F)c3)=NO2)C1 (stereo partly drawn) [I-490] | 80 to 100 | A (A indicates that the inhibition rate was greater than or equal to 80% to 100%) | A (A indicates that the inhibition rate was greater than or equal to 80% to 100%) | 80 to 100 | 80 to 100 | 80 to 100 | A (A indicates that the inhibition rate was greater than or equal to 80% to 100%) | A (A indicates that the inhibition rate was greater than or equal to 80% to 100%) | A (A indicates that the inhibition rate was greater than or equal to 80% to 100%) |
| CC1(C(=O)N[C@H]2C=C[C@@H](C(=O)OCCS(C)(=O)=O)C2)CC(c2cc(F)cc(OC(F)(F)F)c2)=NO1 (stereo partly drawn) [I-492] | 80 to 100 | A (A indicates that the inhibition rate was greater than or equal to 80% to 100%) | A (A indicates that the inhibition rate was greater than or equal to 80% to 100%) | 60 to 80 | 80 to 100 | 80 to 100 | A (A indicates that the inhibition rate was greater than or equal to 80% to 100%) | A (A indicates that the inhibition rate was greater than or equal to 80% to 100%) | A (A indicates that the inhibition rate was greater than or equal to 80% to 100%) |
| CC1(C(=O)N[C@H]2C=C[C@@H](C(=O)O)C2)CC(c2cc(F)cc(C(F)(F)F)c2)=NO1 (stereo partly drawn) [I-493] | 80 to 100 | A (A indicates that the inhibition rate was greater than or equal to 80% to 100%) | A (A indicates that the inhibition rate was greater than or equal to 80% to 100%) | 80 to 100 | 60 to 80 | 60 to 80 | A (A indicates that the inhibition rate was greater than or equal to 80% to 100%) | A (A indicates that the inhibition rate was greater than or equal to 80% to 100%) | A (A indicates that the inhibition rate was greater than or equal to 80% to 100%) |
| COC(=O)[C@@H]1C=C[C@H](NC(=O)C2(C)CC(c3cc(F)cc(OC(F)F)c3)=NO2)C1 (stereo partly drawn) [I-505] | 80 to 100 | A (A indicates that the inhibition rate was greater than or equal to 80% to 100%) | A (A indicates that the inhibition rate was greater than or equal to 80% to 100%) | 80 to 100 | 80 to 100 | 80 to 100 | B (B indicates that the inhibition rate was greater than or equal to 60% to less than 80%) | A (A indicates that the inhibition rate was greater than or equal to 80% to 100%) | A (A indicates that the inhibition rate was greater than or equal to 80% to 100%) |
| COC(=O)[C@@H]1C=C[C@H](NC(=O)C2(C)CC(c3cc(Cl)cc(C(F)(F)F)c3)=NO2)C1 (stereo partly drawn) [I-511] | 80 to 100 | A (A indicates that the inhibition rate was greater than or equal to 80% to 100%) | A (A indicates that the inhibition rate was greater than or equal to 80% to 100%) | 80 to 100 | 80 to 100 | 80 to 100 | A (A indicates that the inhibition rate was greater than or equal to 80% to 100%) | A (A indicates that the inhibition rate was greater than or equal to 80% to 100%) | A (A indicates that the inhibition rate was greater than or equal to 80% to 100%) |
